Reference: patent publication US20230293560A1, “METHOD FOR MODULATING THE BLADDER MICROBIOME TO IMPROVE BLADDER HEALTH” (Kimberly-Clark Worldwide, Inc., priority 2020, published 2023)
Several values for one entry are separate records, joined by “and”; a condition that tells them apart may be missing. Equal entries are not always repeated.

Tests used:
[1] = system: S. anginosus, KC18-1131-3B, Bladder (Sa-2); assay type: cell-based; details: Table 6, prebiotic 2%, one line per replicate
Protocol: (§1) Further testing was conducted to put the prebiotic compounds in competition assay testing, as further described in the test methods section herein. In the competition assay testing, each competition involved testing a single prebiotic compound with the commensal bacteria species of L. crispatus, KC18-1173-1, Bladder (“Lc-3”—Table 2) against the pathogenic bacterial species of S. anginosus, KC18-1131-3B, Bladder (“Sa-2”—Table 2).
(§2) • 1. An in house bacterial agar was created based on MRS agar (Kaplan and Hutkins, 2000) where the glucose is substituted for the prebiotic to be tested (either dextran MW ˜6,000, alpha-cyclodextrin, glucomannan, or pectin), bromocresol purple was included as a pH indicator. • 2. Bacteria were enumerated on each agar and color changes were recorded. Method for Competition Assay (Modified from “In Vitro Evaluation of Nutrients that Selectively Confer a Competitive Advantage to Lactobacilli” Vongsa et al, Beneficial Microbes 2016) • 1. Create 2% w/v stock of prebiotic or positive control (glucose/dextrose) as described above. • 2. From a freezer stock subculture the bacteria twice into De Man, Rogosa and Sharpe (MRS) broth (BD Difco, Becton Dickinson, Franklin Lakes, NJ), 37° C., stationary, anaerobic, overnight. • 3. From the last subculture, plate onto an MRS agar plate for L. crispatus KC18-1173-1 or blood agar for S. anginosus KC18-1131-3B, grow 37° C., stationary, anaerobic, overnight. • 4. Create a bacterial suspension by using a sterile tipped swab to transfer colonies of bacteria into a PBS suspension blank to a 2 MacFarland for both species. • 5. Enumerate the starting culture. • 6. Add 9.8 mL of prebiotic media into a 15 mL conical tube. • 7. Add 100 μL of the diluted bacteria to the media, incubate at 37° C., anaerobic, 48 hours. • 8. Harvest 100 μL from the tube containing the prebiotic and plate onto MRS agar and tryptic soy agar (TSA). • 9. Enumerate the bacteria on the MRS agar (both the L. crispatus and the S. anginosus). Small colonies are counted as S. anginosus and large colonies are counted as L. crispatus. • 10. Enumerate the bacteria on the TSA plate. […] Growth of the bacteria in the negative control (CHL media without prebiotic) was subtracted from the growth in the presence of the prebiotic or formulation.

[2] = system: L. crispatus, KC18-1173-1, Bladder (Lc-3); assay: Competition assay, L. crispatus recovered; assay type: cell-based, Lactobacillus crispatus; details: Table 6, prebiotic 2%, one line per replicate
Protocol: as §1, §2

[3] = change vs start, background growth in CHL media subtracted, MRS agar

## CO[C@H]1O[C@H](CO)[C@@H](O)[C@H](O)[C@H]1O [Alpha-Methyl-D-Glucoside]
[1]; [3]
  Sa-2 MRS Δ: 0.45 Log CFU/mL and 0.55 Log CFU/mL
[1]; change vs start, background growth in CHL media subtracted, TSA
  Sa-2 TSA Δ: 0.62 Log CFU/mL and 0.41 Log CFU/mL
[1]; competition Sa-2 vs Lc-3, 48 hours, anaerobic, enumerated on MRS agar
  Sa-2 MRS end: 7.15 Log CFU/mL and 7.40 Log CFU/mL
[1]; competition Sa-2 vs Lc-3, 48 hours, enumerated on TSA
  Sa-2 TSA end: 7.47 Log CFU/mL and 7.54 Log CFU/mL
[2]; [3]
  Lc-3 MRS Δ: 1.39 Log CFU/mL and 0.70 Log CFU/mL
[2]; competition Sa-2 vs Lc-3, 48 hours, enumerated on MRS agar
  Lc-3 MRS end: 6.52 Log CFU/mL and 6.78 Log CFU/mL
